# Read-outs that look alike come from different tables or passages of the source.
# What was measured:
# Assay in all cases: Kinase panel
# Type in all cases: biochemical
# PKA = PKA (Homo sapiens, UniProt P17612); conditions: read-out: residual enzyme activity
# Method: (§1) To measure the inhibitory activity of protein kinases against the compounds of the present invention, a biochemical assay was performed using a full kinase panel. The inhibitory efficacy of kinases was measured when Example compounds 8 and 51 were treated at a single concentration of 1 µM, and residual enzyme activity values were calculated. Kinases were identified when the calculated residual enzyme activity values were 40% or less, i.e., inhibited by 60% or more.
# KDR/VEGFR2 = KDR/VEGFR2 (Homo sapiens, UniProt P35968); conditions: KDR/VEGFR2, 1 µM; read-out: residual enzyme activity
# Sequence of KDR/VEGFR2 (P35968 20-1356): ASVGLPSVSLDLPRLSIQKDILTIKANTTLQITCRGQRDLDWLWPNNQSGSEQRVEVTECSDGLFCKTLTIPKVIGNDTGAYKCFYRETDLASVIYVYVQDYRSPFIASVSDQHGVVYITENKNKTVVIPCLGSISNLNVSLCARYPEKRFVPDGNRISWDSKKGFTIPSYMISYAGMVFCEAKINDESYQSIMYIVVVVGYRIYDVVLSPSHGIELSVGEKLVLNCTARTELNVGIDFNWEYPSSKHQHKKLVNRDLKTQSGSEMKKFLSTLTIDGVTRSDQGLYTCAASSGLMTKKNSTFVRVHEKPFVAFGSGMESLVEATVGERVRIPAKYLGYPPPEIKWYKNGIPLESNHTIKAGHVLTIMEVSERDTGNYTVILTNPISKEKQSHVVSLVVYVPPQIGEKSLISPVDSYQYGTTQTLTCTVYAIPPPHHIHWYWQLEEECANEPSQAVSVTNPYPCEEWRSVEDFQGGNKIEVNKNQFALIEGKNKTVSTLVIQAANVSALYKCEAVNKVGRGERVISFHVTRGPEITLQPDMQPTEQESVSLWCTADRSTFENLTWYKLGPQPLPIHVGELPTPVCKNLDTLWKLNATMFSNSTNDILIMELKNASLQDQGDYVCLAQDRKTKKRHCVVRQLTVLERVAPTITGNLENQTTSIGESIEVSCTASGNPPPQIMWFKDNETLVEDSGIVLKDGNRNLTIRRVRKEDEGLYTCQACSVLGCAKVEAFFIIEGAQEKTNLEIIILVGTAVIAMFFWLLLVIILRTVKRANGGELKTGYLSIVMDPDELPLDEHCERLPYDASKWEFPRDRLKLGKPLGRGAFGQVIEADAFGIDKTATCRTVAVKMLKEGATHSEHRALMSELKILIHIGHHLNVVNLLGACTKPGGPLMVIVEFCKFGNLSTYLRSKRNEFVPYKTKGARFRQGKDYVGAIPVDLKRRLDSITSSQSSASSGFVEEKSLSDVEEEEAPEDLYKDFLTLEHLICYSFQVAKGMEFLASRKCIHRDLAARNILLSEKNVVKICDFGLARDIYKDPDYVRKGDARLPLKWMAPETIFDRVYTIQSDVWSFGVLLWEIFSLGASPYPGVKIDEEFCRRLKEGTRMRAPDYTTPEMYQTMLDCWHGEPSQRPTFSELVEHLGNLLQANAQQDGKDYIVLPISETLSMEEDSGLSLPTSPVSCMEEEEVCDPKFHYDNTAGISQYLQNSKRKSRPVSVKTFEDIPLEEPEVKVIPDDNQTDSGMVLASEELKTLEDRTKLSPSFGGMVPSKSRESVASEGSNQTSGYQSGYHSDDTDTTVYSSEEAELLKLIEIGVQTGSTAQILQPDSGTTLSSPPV
# Method: as §1
# P70S6K/RPS6KB1 = P70S6K/RPS6KB1 (Homo sapiens, UniProt P23443); conditions: read-out: residual enzyme activity
# Method: as §1
# NEK1 = NEK1 (Homo sapiens, UniProt Q96PY6); conditions: NEK1, 1 µM; read-out: residual enzyme activity
# Method: as §1
# P38B/MAPK11 = P38B/MAPK11 (Homo sapiens, UniProt Q15759); conditions: read-out: residual enzyme activity
# Method: as §1
# BMX/ETK = BMX/ETK (Homo sapiens, UniProt P51813); conditions: read-out: residual enzyme activity
# Method: as §1
# STK38/NDR1 = STK38/NDR1 (Homo sapiens, UniProt Q15208); conditions: STK38/NDR1, 1 µM; read-out: residual enzyme activity
# Method: as §1
# DAPK2 = DAPK2 (Homo sapiens, UniProt Q9UIK4); conditions: DAPK2, 1 µM; read-out: residual enzyme activity
# Method: as §1
# ERK2/MAPK1 = ERK2/MAPK1 (Homo sapiens, UniProt P28482); conditions: ERK2/MAPK1, 1 µM; read-out: residual enzyme activity
# Method: as §1
# IKKE/IKBKE = IKKE/IKBKE (Homo sapiens, UniProt Q14164); conditions: read-out: residual enzyme activity
# Sequence of IKKE/IKBKE (Q14164 whole entry): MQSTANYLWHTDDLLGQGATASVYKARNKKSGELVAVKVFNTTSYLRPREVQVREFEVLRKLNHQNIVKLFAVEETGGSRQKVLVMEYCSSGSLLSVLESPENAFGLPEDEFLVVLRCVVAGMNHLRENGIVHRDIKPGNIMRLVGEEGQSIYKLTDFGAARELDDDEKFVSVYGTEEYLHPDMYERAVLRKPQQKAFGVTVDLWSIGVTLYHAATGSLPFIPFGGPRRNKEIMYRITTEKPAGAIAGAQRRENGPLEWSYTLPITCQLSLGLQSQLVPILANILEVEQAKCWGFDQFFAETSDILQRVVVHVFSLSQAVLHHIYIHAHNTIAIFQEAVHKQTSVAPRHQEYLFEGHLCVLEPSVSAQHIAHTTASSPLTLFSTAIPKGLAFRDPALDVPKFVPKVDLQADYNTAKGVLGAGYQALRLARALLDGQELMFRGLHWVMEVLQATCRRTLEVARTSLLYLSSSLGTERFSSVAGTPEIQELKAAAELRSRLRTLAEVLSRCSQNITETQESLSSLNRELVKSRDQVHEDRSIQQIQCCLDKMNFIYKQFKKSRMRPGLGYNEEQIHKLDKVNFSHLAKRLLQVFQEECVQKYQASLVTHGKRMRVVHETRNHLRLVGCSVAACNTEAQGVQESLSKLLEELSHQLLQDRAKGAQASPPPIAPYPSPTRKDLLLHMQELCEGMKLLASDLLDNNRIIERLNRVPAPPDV
# Method: as §1
# PAK5 = PAK5 (Homo sapiens, UniProt Q9P286); conditions: PAK5, 1 µM; read-out: residual enzyme activity
# Method: as §1
# SGK2 = SGK2 (Homo sapiens, UniProt Q9HBY8); conditions: SGK2, 1 µM; read-out: residual enzyme activity
# Method: as §1
# NEK4 = NEK4 (Homo sapiens, UniProt P51957); conditions: NEK4, 1 µM; read-out: residual enzyme activity
# Method: as §1
# CTK/MATK = CTK/MATK (Homo sapiens, UniProt P42679); conditions: read-out: residual enzyme activity
# Method: as §1
# PKCB1 = PKCB1 (Homo sapiens, UniProt P05771); conditions: read-out: residual enzyme activity
# Sequence of PKCB1 (P05771 whole entry): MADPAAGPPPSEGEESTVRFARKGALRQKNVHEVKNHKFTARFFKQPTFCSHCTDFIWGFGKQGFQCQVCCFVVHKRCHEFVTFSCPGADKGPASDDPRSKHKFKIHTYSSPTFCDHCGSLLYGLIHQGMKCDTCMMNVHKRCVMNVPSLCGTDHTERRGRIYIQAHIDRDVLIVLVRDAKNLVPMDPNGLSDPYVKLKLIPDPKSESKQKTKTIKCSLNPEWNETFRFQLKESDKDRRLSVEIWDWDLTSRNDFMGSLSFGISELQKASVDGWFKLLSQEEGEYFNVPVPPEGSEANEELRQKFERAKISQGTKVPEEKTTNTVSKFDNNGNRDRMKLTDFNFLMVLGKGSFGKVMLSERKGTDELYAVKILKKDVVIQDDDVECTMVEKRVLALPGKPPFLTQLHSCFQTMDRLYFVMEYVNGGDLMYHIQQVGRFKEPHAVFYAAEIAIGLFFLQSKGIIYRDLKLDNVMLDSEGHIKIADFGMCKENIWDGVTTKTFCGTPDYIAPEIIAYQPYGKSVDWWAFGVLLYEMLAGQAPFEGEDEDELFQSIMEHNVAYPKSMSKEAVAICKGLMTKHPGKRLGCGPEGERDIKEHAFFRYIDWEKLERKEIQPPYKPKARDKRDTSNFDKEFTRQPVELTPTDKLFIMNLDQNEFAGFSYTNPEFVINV
# Method: as §1
# ALK3/BMPR1A = ALK3/BMPR1A (Homo sapiens, UniProt P36894); conditions: read-out: residual enzyme activity
# Method: as §1
# FRK/PTKS = FRK/PTKS (Homo sapiens, UniProt P42685); conditions: read-out: residual enzyme activity
# Method: as §1
# TLK1 = TLK1 (Homo sapiens, UniProt Q9UKI8); conditions: TLK1, 1 µM; read-out: residual enzyme activity
# Method: as §1
# BLK = BLK (Homo sapiens, UniProt P51451); conditions: read-out: residual enzyme activity
# Sequence of BLK (P51451 whole entry): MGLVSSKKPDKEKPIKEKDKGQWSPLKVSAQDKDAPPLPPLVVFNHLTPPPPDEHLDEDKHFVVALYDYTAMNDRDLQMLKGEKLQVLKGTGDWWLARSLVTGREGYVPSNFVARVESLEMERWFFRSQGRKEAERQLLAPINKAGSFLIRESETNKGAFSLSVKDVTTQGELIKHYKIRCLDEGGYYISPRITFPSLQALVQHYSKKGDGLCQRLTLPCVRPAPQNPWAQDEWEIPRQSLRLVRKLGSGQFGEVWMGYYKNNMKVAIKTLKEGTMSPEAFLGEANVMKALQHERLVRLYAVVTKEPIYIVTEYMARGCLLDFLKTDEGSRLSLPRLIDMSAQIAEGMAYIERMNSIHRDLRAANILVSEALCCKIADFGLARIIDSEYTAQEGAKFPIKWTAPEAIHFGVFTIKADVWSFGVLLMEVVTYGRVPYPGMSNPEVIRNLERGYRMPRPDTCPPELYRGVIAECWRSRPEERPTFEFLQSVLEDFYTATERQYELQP
# Method: as §1
# GSK3B = GSK3B (Homo sapiens, UniProt P49841); conditions: read-out: residual enzyme activity
# Sequence of GSK3B (P49841 whole entry, species assumed): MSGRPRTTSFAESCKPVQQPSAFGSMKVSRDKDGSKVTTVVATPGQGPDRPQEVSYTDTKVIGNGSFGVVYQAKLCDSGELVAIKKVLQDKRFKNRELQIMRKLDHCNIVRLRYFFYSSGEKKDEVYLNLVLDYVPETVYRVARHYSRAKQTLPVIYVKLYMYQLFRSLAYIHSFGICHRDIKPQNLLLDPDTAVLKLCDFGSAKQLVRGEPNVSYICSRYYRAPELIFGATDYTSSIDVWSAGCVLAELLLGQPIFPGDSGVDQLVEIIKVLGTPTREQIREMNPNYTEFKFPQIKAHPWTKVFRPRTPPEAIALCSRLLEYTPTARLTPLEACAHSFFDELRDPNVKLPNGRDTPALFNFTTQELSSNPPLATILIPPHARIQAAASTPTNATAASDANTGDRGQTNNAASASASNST
# Method: as §1
# RSK1 = RSK1 (Homo sapiens, UniProt Q15418); conditions: RSK1, 1 µM; read-out: residual enzyme activity
# Method: as §1
# DMPK2 = DMPK2 (Homo sapiens, UniProt Q6DT37); conditions: DMPK2, 1 µM; read-out: residual enzyme activity
# Method: as §1
# CAMK4 = CAMK4 (Homo sapiens, UniProt Q16566); conditions: CAMK4, 1 µM; read-out: residual enzyme activity
# Method: as §1
# DYRK2 = DYRK2 (Homo sapiens, UniProt Q92630); conditions: DYRK2, 1 µM; read-out: residual enzyme activity
# Method: as §1
# BRSK1 = BRSK1 (Homo sapiens, UniProt Q8TDC3); conditions: BRSK1, 1 µM; read-out: residual enzyme activity
# Method: as §1
# MAK = MAK (Homo sapiens, UniProt P20794); conditions: read-out: residual enzyme activity
# Method: as §1
# SSTK/TSSK6 = SSTK/TSSK6 (Homo sapiens, UniProt Q9BXA6); conditions: SSTK/TSSK6, 1 µM; read-out: residual enzyme activity
# Sequence of SSTK/TSSK6 (Q9BXA6 whole entry): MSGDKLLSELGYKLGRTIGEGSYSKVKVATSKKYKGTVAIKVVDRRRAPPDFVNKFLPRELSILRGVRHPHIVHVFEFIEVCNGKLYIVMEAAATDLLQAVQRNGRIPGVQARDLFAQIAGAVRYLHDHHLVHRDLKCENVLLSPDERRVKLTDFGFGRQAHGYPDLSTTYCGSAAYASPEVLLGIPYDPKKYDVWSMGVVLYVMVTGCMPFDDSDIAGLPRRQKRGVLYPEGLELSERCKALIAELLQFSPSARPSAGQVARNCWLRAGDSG
# Method: as §1
# PAK2 = PAK2 (Homo sapiens, UniProt Q13177); conditions: PAK2, 1 µM; read-out: residual enzyme activity
# Method: as §1
# PDK1/PDPK1 = PDK1/PDPK1 (Homo sapiens, UniProt O15530); conditions: PDK1/PDPK1, 1 µM; read-out: residual enzyme activity
# Method: as §1
# ABL1 = ABL1 (Homo sapiens, UniProt P00519); conditions: ABL1, 1 µM; read-out: residual enzyme activity
# Method: as §1
# EPHA1 = EPHA1 (Homo sapiens, UniProt P21709); conditions: EPHA1, 1 µM; read-out: residual enzyme activity
# Method: as §1
# PDGFRA = PDGFRA (Homo sapiens, UniProt P16234); conditions: read-out: residual enzyme activity
# Method: as §1
# EPHB2 = EPHB2 (Homo sapiens, UniProt P29323); conditions: EPHB2, 1 µM; read-out: residual enzyme activity
# Sequence of EPHB2 (P29323 19-1055, species assumed): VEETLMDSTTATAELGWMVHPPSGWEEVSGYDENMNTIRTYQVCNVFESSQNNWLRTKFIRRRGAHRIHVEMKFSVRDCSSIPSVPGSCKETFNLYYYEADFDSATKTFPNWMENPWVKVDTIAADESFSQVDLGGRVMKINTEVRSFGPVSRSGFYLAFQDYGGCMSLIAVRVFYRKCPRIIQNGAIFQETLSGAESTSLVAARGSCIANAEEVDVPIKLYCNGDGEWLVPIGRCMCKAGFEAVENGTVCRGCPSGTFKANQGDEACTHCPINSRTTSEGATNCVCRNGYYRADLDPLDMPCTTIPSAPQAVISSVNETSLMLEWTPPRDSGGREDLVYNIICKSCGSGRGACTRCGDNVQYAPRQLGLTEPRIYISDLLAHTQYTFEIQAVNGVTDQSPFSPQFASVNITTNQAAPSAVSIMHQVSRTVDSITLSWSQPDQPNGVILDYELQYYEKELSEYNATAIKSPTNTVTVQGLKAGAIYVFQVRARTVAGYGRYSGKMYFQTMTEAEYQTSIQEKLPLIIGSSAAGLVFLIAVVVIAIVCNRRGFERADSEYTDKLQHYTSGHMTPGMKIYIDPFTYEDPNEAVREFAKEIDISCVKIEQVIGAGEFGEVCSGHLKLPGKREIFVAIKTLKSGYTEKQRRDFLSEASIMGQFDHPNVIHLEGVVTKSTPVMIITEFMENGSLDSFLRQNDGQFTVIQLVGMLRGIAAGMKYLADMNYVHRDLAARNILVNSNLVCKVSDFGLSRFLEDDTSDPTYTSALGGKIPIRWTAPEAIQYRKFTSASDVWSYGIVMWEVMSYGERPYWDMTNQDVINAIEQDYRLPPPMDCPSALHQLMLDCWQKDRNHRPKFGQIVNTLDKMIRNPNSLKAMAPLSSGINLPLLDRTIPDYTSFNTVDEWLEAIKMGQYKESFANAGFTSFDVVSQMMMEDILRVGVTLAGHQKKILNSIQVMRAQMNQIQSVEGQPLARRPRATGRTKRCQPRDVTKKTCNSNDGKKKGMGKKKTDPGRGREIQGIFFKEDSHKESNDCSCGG
# Method: as §1
# SRMS = SRMS (Homo sapiens, UniProt Q9H3Y6); conditions: read-out: residual enzyme activity
# Method: as §1
Compound,remaining activity at 1 µM (PKA),remaining activity at 1 µM (KDR/VEGFR2),remaining activity at 1 µM (NEK1),remaining activity at 1 µM (BMX/ETK),remaining activity at 1 µM (STK38/NDR1),remaining activity at 1 µM (DAPK2),remaining activity at 1 µM (ERK2/MAPK1),remaining activity at 1 µM (IKKE/IKBKE),remaining activity at 1 µM (PAK5),remaining activity at 1 µM (SGK2),remaining activity at 1 µM (NEK4),remaining activity at 1 µM (CTK/MATK),remaining activity at 1 µM (ALK3/BMPR1A),remaining activity at 1 µM (FRK/PTKS),remaining activity at 1 µM (TLK1),remaining activity at 1 µM (BLK),remaining activity at 1 µM (RSK1),remaining activity at 1 µM (DMPK2),remaining activity at 1 µM (CAMK4),remaining activity at 1 µM (DYRK2),further results
"Cc1cn(-c2cc(C(=O)Nc3ccc(C)c(N4Cc5cnc(NC6CC6)nc5C5(CC5)C4=O)c3)cc(C(F)(F)F)c2)cn1 [Compound 8, N-(3-(2'-(cyclopropylamino)-7'-oxo-5'H-spiro[cyclopropane-1,8'-pyrido[4,3-d]pyrimidine]-6'(7'H)-yl)-4-methylphenyl)-3-(4-methyl-1H-imidazol-1-yl)-5-(trifluoromethyl)benzamide]",> 40%,≤ 40%,> 40%,≤ 40%,> 40%,> 40%,> 40%,> 40%,> 40%,> 40%,≤ 40%,> 40%,> 40%,≤ 40%,> 40%,≤ 40%,≤ 40%,> 40%,> 40%,> 40%,"remaining activity at 1 µM (P70S6K/RPS6KB1; P70S6K/RPS6KB1, 1 µM): > 40%; remaining activity at 1 µM (P38B/MAPK11; P38B/MAPK11, 1 µM): ≤ 40%; remaining activity at 1 µM (PKCB1; PKCB1, 1 µM): > 40%; remaining activity at 1 µM (GSK3B; GSK3B): > 40%; remaining activity at 1 µM (BRSK1): > 40%; remaining activity at 1 µM (MAK): > 40%; remaining activity at 1 µM (SSTK/TSSK6): > 40%; remaining activity at 1 µM (PAK2): > 40%; remaining activity at 1 µM (PDK1/PDPK1): > 40%; remaining activity at 1 µM (ABL1): ≤ 40%; remaining activity at 1 µM (EPHA1): ≤ 40%; remaining activity at 1 µM (PDGFRA): ≤ 40%; remaining activity at 1 µM (EPHB2): ≤ 40%; remaining activity at 1 µM (SRMS): ≤ 40%"
"Cc1ccc(Nc2ncc3c(n2)C2(CC2)C(=O)N(c2cc(NC(=O)c4cccc(C(F)(F)F)c4)ccc2C)C3)cn1 [Compound 51, N-(4-methyl-3-(2'-((6-methylpyridin-3-yl)amino)-7'-oxo-5'H-spiro[cyclopropane-1,8'-pyrido[4,3-d]pyrimidine]-6'(7'H)-yl)phenyl)-3-(trifluoromethyl)benzamide]",> 40%,≤ 40%,> 40%,≤ 40%,> 40%,> 40%,> 40%,> 40%,> 40%,> 40%,≤ 40%,> 40%,> 40%,≤ 40%,> 40%,≤ 40%,≤ 40%,> 40%,> 40%,> 40%,"remaining activity at 1 µM (P70S6K/RPS6KB1; p70S6K/RPS6KB1, 1 µM): ≤ 40%; remaining activity at 1 µM (P38B/MAPK11; P38b/MAPK11, 1 µM): ≤ 40%; remaining activity at 1 µM (PKCB1; PKCbl, 1 µM): > 40%; remaining activity at 1 µM (GSK3B; GSK3b): > 40%; remaining activity at 1 µM (BRSK1): > 40%; remaining activity at 1 µM (MAK): > 40%; remaining activity at 1 µM (SSTK/TSSK6): > 40%; remaining activity at 1 µM (PAK2): > 40%; remaining activity at 1 µM (PDK1/PDPK1): > 40%; remaining activity at 1 µM (ABL1): ≤ 40%; remaining activity at 1 µM (EPHA1): ≤ 40%; remaining activity at 1 µM (PDGFRA): ≤ 40%; remaining activity at 1 µM (EPHB2): ≤ 40%; remaining activity at 1 µM (SRMS): ≤ 40%"

# From patent EP4722212A1, “NOVEL COMPOUND FOR INHIBITING PROTEIN KINASES AND PHARMACEUTICAL COMPOSITION COMPRISING SAME” (Magicbullettherapeutics Co., Ltd., priority 2023, dated 2024)
